The results in this text go back to PubChem BioAssay (NCI).

The TGI is the concentration giving total growth inhibition. A word on the GI50: it is the concentration giving 50% growth inhibition.

Among the test systems are HL-60(TB) leukemia; HS 578T breast; CAKI-1 renal; COLO 205 colon; SK-MEL-28 melanoma; UACC-62 melanoma; NCI-H226 lung; EKVX NSCLC; SN12C renal; RPMI-8226 leukemia.
Assay in all cases: DTP human tumour cell line panel, 48 h

Several values for one entry are separate records, joined by “and”; a condition that tells them apart may be missing. Equal entries are not always repeated.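 Each compound was tested at five concentrations against cells in 96-well plates for 48 hours. The concentration for 50% growth inhibition is given as GI50. TGI: total growth inhibition.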 Where only a bound is given, the exact number is not on record here.

For the molecule `CC(C)C1=CC2=C(C(=O)C1=O)C13CCCC(C)(C)C1CC2OC3=O` (centres undefined), the TGI in the test on HL-60(TB) leukemia is 36.3 µM; in the test on HS 578T breast, above 100 µM; with CAKI-1 renal, 44.1 µM; in the test with COLO 205 colon, 34.8 µM; with SK-MEL-28 melanoma, 31.7 µM; in the test with UACC-62 melanoma, 27.4 µM. The TGI in the test on NCI-H226 lung was determined as 49.2 µM; in the test with EKVX NSCLC it was 31.7 µM; in the test with SN12C renal it was 43.6 µM; in the test on RPMI-8226 leukemia, 39.7 µM.

Consider `CC(=O)ON=C1C=CC(=C(C#N)c2ccccc2)C=C1`, for which the GI50 in the test with HL-60(TB) leukemia is 1.11 µM; in the test with HS 578T breast it was 3.51 µM; with CAKI-1 renal, 0.396 µM; in the test on COLO 205 colon, 6.02 µM; in the test on SK-MEL-28 melanoma, 8.77 µM; in the test with UACC-62 melanoma it was 3.78 µM. In addition, the GI50 was 2.88 µM with NCI-H226 lung, 6.96 µM with EKVX NSCLC, 2.49 µM in the test on SN12C renal and 0.428 µM in the test on RPMI-8226 leukemia. For the same molecule, the TGI in the test with HL-60(TB) leukemia was 4.87 µM; in the test on HS 578T breast, above 31.3 µM; in the test on CAKI-1 renal it was 2.71 µM; with COLO 205 colon it was 19.3 µM; with SK-MEL-28 melanoma, 61.4 µM; with UACC-62 melanoma it was 25.7 µM. Besides, the TGI with NCI-H226 lung was 9.36 µM; with EKVX NSCLC, 42.4 µM; with SN12C renal, 20.9 µM; with RPMI-8226 leukemia it was 2.94 µM.

In the case of `CC[C@@]1(O)C(=O)OCc2c1cc1n(c2=O)Cc2c-1nc1cc(F)c(C)c3c1c2[C@@H](NC(=O)CO)CC3`, the GI50 in the test on HL-60(TB) leukemia is below 0.01 µM; with HS 578T breast, 1.25 µM; with CAKI-1 renal it was below 0.01 µM; in the test with COLO 205 colon it was 0.127 µM; in the test with SK-MEL-28 melanoma, 0.176 µM; in the test with UACC-62 melanoma, below 0.01 µM. In addition, the GI50 is below 0.0128 µM with NCI-H226 lung, 0.311 µM with EKVX NSCLC, below 0.01 µM in the test with SN12C renal and 0.0721 µM in the test with RPMI-8226 leukemia. The concentration for total growth inhibition (TGI) in the test on HL-60(TB) leukemia is 0.781 µM; in the test with HS 578T breast, above 100 µM; in the test with CAKI-1 renal, 0.117 µM; in the test with COLO 205 colon, 4.16 µM; in the test on SK-MEL-28 melanoma, 4.56 µM; in the test with UACC-62 melanoma, 0.117 µM. The TGI with NCI-H226 lung is 0.117 µM; in the test on EKVX NSCLC it was above 100 µM; with RPMI-8226 leukemia, 1.67 µM.

In the case of `C[C@]12CC[C@H]3[C@@H](CC[C@]4(O)C[C@@H](O[C@@H]5O[C@H](CO)[C@@H](O[C@@H]6OC[C@@H](O)[C@H](O)[C@H]6O)[C@H](O)[C@H]5O)CC[C@]34C=O)[C@@]1(O)CC[C@@H]2C1=CC(=O)OC1`, the GI50 was 1.12 µM in the test with HL-60(TB) leukemia; 0.845 µM in the test with HS 578T breast; 0.886 µM with CAKI-1 renal; 1.98 µM with COLO 205 colon; 2.76 µM in the test on SK-MEL-28 melanoma; 1.61 µM with UACC-62 melanoma. Also, the GI50 in the test with NCI-H226 lung is 1.47 µM; in the test with EKVX NSCLC it was 0.781 µM; in the test with SN12C renal, 0.414 µM; with RPMI-8226 leukemia, 1.9 µM. Besides, the TGI with HL-60(TB) leukemia is 3.08 µM; with HS 578T breast, 4.31 µM; in the test on CAKI-1 renal, 2.26 µM; in the test on COLO 205 colon, 7.24 µM; with SK-MEL-28 melanoma it was 15.6 µM; in the test on UACC-62 melanoma it was 5.04 µM. In addition, the TGI is 3.69 µM with NCI-H226 lung, 1.93 µM with EKVX NSCLC, 2.49 µM with SN12C renal and 14.6 µM in the test on RPMI-8226 leukemia.

Consider `Cc1cnc(-c2ccc(-c3ccc(NC(=O)Nc4c(F)cc(F)cc4F)cc3F)c3c2C(=O)NC3)[nH]1`, for which the GI50 in the test on HL-60(TB) leukemia is 1.1 µM and 0.946 µM; in the test with HS 578T breast, 0.351 µM and 1.07 µM; with CAKI-1 renal, 1.74 µM; with COLO 205 colon it was below 0.01 µM; in the test on SK-MEL-28 melanoma, 1.16 µM and 0.642 µM; in the test with UACC-62 melanoma it was 0.14 µM and 0.223 µM. The GI50 is 4.2 µM and 6.26 µM with NCI-H226 lung; 2.33 µM and 2.96 µM in the test on EKVX NSCLC; 1.29 µM and 0.432 µM in the test on SN12C renal; 1.02 µM and 0.715 µM in the test on RPMI-8226 leukemia. In addition, the TGI in the test on HL-60(TB) leukemia was 12.9 µM and 16.9 µM; in the test with HS 578T breast, 5.19 µM and 13.5 µM; with CAKI-1 renal, 27.5 µM; in the test with COLO 205 colon, 13.2 µM and 27.3 µM; in the test with SK-MEL-28 melanoma it was 9.69 µM and 5.48 µM; in the test with UACC-62 melanoma, 2.1 µM and 2.39 µM. Also, the TGI in the test with NCI-H226 lung is 39.9 µM and 36.5 µM; in the test with EKVX NSCLC, above 100 µM; in the test with SN12C renal, 4.57 µM and 3.41 µM; in the test on RPMI-8226 leukemia, 6.02 µM and > 33 µM.

On to `COC(=O)c1c2c(c(C)[n+]([O-])c1C)C(=O)C(NCc1ccc(O)cc1)=CC2=O`, for which the GI50 in the test on HL-60(TB) leukemia was 2.46 µM; with HS 578T breast, 2.3 µM; with CAKI-1 renal, 1.69 µM; in the test with COLO 205 colon, 0.579 µM; in the test with SK-MEL-28 melanoma, 2.26 µM; in the test with UACC-62 melanoma, 1.36 µM. In addition, the GI50 in the test with NCI-H226 lung was 2.06 µM; in the test with EKVX NSCLC, 1.73 µM; with SN12C renal it was 1.23 µM; in the test on RPMI-8226 leukemia, 1.78 µM. For the same molecule, the TGI with HL-60(TB) leukemia came to 5.69 µM; in the test with HS 578T breast it was 6.98 µM; with CAKI-1 renal, 4.26 µM; in the test on COLO 205 colon, 2.19 µM; in the test on SK-MEL-28 melanoma, 4.36 µM; with UACC-62 melanoma it was 2.97 µM. The TGI in the test with NCI-H226 lung is 4.36 µM; with EKVX NSCLC it was 3.34 µM; with SN12C renal, 2.56 µM; in the test with RPMI-8226 leukemia, 4.18 µM.

`Nc1cc(N)c2nc(NCCc3ccc(Cl)c(Cl)c3)cnc2c1`: the GI50 was 2.15 µM in the test on HL-60(TB) leukemia; 23.5 µM in the test on HS 578T breast; 4.89 µM with CAKI-1 renal; 5.6 µM with COLO 205 colon; 13.4 µM in the test on SK-MEL-28 melanoma; 14.1 µM in the test with UACC-62 melanoma. Further, the GI50 was 21.4 µM in the test on NCI-H226 lung, 12.1 µM with EKVX NSCLC, 11.7 µM in the test with SN12C renal and 2.54 µM with RPMI-8226 leukemia. Besides, the TGI is 4.88 µM with HL-60(TB) leukemia; 56.9 µM in the test on HS 578T breast; 18.2 µM in the test with CAKI-1 renal; 24.3 µM in the test with COLO 205 colon; 26.2 µM with SK-MEL-28 melanoma; 27.8 µM with UACC-62 melanoma. Besides, the TGI was 47.6 µM in the test on NCI-H226 lung, 24.6 µM in the test on EKVX NSCLC, 23.9 µM in the test with SN12C renal and 7.81 µM in the test with RPMI-8226 leukemia.
